Assays:
Format in all cases: in vivo
[1] = tested on: barnyardgrass (Echinochloa crusgalli); assay: Example 5, Procedure I: Herbicide No. 1 + alachlor (No. 7) with Antidote Nos. 15 and 16
Protocol: (§1) Containers were filled and compacted with a fumigated silt loam top soil to a depth of about 1.3 cm from the top of the container. A first container was designated as an untreated control, a second container was designated as a herbicide control, and a third container was designated as a herbicide + antidote test container. Each of the containers was seeded with a crop species. A measured amount of herbicide dispersed or dissolved in acetone was applied to a measured quantity of soil. To this same quantity of soil treated with herbicide, there was added a measured amount of antidote dispersed or dissolved in acetone. The quantity of soil treated with the herbicide and antidote was thoroughly mixed to incorporate the herbicide and antidote in the soil uniformly. The seed bed in the third container of soil was covered with the soil treated with the herbicide and antidote and the container was leveled. For each test series, the seed beds of the first and second containers were likewise covered by soil layers. the cover layer of the first container was not treated with herbicide or antidote.
(§2) The containers were then placed on a bench in a greenhouse and sub-irrigated as required for the duration of the test. […] Plant response is measured in terms of percent injury. Antidote efficacy is indicated as the difference in plant injury by the herbicide(s) without the antidote and with the antidote.
(§3) In the series of greenhouse tests described below, for routine screening purposes the herbicide/antidote compositions were tested in crop/weed combinations involving corn as the crop and either or both of the weeds barnyardgrass (Echinochloa crusgalli), a monocotyledonous weed, and velvetleaf (Abutilon theophrasti), a dicotyledonous weed. In the tables below, these weeds are indicated by the symbols "BYG" and "VL", respectively.
(§4) This example describes tests with Antidote Nos. 15 and 16 to safen Herbicide No. 1 according to Procedure I using corn and the weeds barnyardgrass and velvetleaf as the test plants.
(§5) In the tests described in this example, the same procedure described in Example 4 was performed simultaneously therewith and under the same conditions, except that a co-herbicide, alachlor, was included in the same composition with Herbicide No. 1 and Antidote Nos. 15 and 16. Alachlor (Herbicide No. 7 herein) is the active ingredient in the commercial product LASSO® herbicide.

[2] = tested on: velvetleaf (Abutilon theophrasti); assay: as above
Protocol: as §1, §2, §3, §4, §5

[3] = tested on: barnyardgrass (Echinochloa crusgalli); assay: Example 4, Procedure I: Antidote Nos. 15 and 16 against Herbicide No. 1
Protocol: as §1, §2, §3, §4

[4] = tested on: velvetleaf (Abutilon theophrasti); assay: as above
Protocol: as §1, §2, §3, §4

[5] = tested on: barnyardgrass (Echinochloa crusgalli); assay: Example 3, Procedure I: antidotes against Herbicide No. 1
Protocol: as §1, §2, §3
This example details the results of tests with Antidote Nos. 12, 15 and 16 to safen Herbicide No. 1 over application rates ranging from 4.48 kg/ha down to 0.56 kg/ha, in corn in the presence of barnyardgrass. Procedure I described above was used in these tests.

[6] = tested on: corn; assay: Example 26, field trials, pre-plant incorporation (PPI): corn growth reduction; settings: for corn injury level (GR) / corn growth reduction (GR): without an antidote; for corn growth reduction (GR) / maximum injury level (GR): PPI
Protocol: In order to better understand and to confirm the results of greenhouse tests with herbicidal compositions comprising representative compounds according to Formula I and an antidote with and without a co-herbicide, a large number of field trials were conducted. This example provides a summary of those field trials.
The primary purpose of the field trials summarized herein was to ascertain the amount of corn injury caused by a compound according to Formula I. viz. Herbicide No. 1, with and without a co-herbicide of the α-chloroacetanilide class, viz., Herbicide Nos. 6 and 7, and the extent that any corn injury could be safened by a dichloroacetamide antidotal compound, viz., Antidote No. 15.
Corn injury is generally expressed, in broad terms, in stand reduction, growth reduction, malformed plants and other more specific effects. For purposes of the summary here, the results of a plurality of field trials are expressed in terms of growth reduction (GR), i.e., a significant reduction in plant height of the corn stand. A common criteria for commercially-acceptable corn injury is an amount equal to or less than 10% malformed plants or stand reduction and for present reporting purposes, no greater than about 15% growth reduction. The corn injury/safening described for these field trials refers to commercially-unacceptable to commercially-acceptable performance.
In the field trials from a wide distribution of trial locations, soil types (all having in excess of 2% organic matter), climatic effects, etc., the test chemicals were applied as tank mixes in various modes of application, i.e., pre-plant incorporation (PPI) and preemergence surface application (PRE). Test plots were small plots with three replications in a randomized complete block design. Observations were made and recorded in a period of from 31-50 days after treatment.

[7] = Herbicide No.1 4.48 + No.7 0.56 kg/ha + antidote 0.56 kg/ha
[8] = Herbicide No.1 4.48 + No.7 0.56 kg/ha + antidote 2.24 kg/ha
[9] = Herbicide No.1 4.48 + No.7 2.24 kg/ha + antidote 0.56 kg/ha
[10] = Herbicide No.1 4.48 + No.7 2.24 kg/ha + antidote 2.24 kg/ha
[11] = Herbicide No.1 6.72 + No.7 0.56 kg/ha + antidote 0.56 kg/ha
[12] = Herbicide No.1 6.72 + No.7 0.56 kg/ha + antidote 2.24 kg/ha
[13] = Herbicide No.1 6.72 + No.7 2.24 kg/ha + antidote 0.56 kg/ha
[14] = Herbicide No.1 6.72 + No.7 2.24 kg/ha + antidote 2.24 kg/ha
[15] = Herb. No. 1 4.48 kg/ha + antidote 0.56 kg/ha
[16] = Herb. No. 1 4.48 kg/ha + antidote 2.24 kg/ha
[17] = Herb. No. 1 6.72 kg/ha + antidote 0.56 kg/ha
[18] = Herb. No. 1 6.72 kg/ha + antidote 2.24 kg/ha
[19] = Herbicide No.1 4.48 + No.7 0.56 kg/ha, no antidote
[20] = Herbicide No.1 4.48 + No.7 2.24 kg/ha, no antidote
[21] = Herbicide No.1 6.72 + No.7 0.56 kg/ha, no antidote
[22] = Herbicide No.1 6.72 + No.7 (alachlor) 2.24 kg/ha, no antidote
[23] = Herb. No. 1 4.48 kg/ha, no antidote, average of two replicates
[24] = Herb. No. 1 6.72 kg/ha, no antidote, average of two replicates

Compound: CC1(C)OC(c2ccco2)CN1C(=O)C(Cl)Cl (stereo not drawn) [compound 15]
- % Injury BYG [1, 7]: 99%
- % Injury BYG [1, 8]: 95%
- % Injury BYG [1, 9]: 100%
- % Injury BYG [1, 10]: 100%
- % Injury BYG [1, 11]: 99%
- % Injury BYG [1, 12]: 99%
- % Injury BYG [1, 13]: 100%
- % Injury BYG [1, 14]: 100%
- % Injury VL [2, 7]: 95%
- % Injury VL [2, 8]: 95%
- % Injury VL [2, 9]: 98%
- % Injury VL [2, 10]: 95%
- % Injury VL [2, 11]: 95%
- % Injury VL [2, 12]: 99%
- % Injury VL [2, 13]: 99%
- % Injury VL [2, 14]: 95%
- % Injury BYG [3, 15]: 95%
- % Injury BYG [3, 16]: 90%
- % Injury BYG [3, 17]: 90%
- % Injury BYG [3, 18]: 90%
- % Injury VL [4, 15]: 95%
- % Injury VL [4, 16]: 95%
- % Injury VL [4, 17]: 95%
- % Injury VL [4, 18]: 95%
- % Injury BYG ([5]; Herb. No. 1 0.56 kg/ha + antidote 0.56 kg/ha): 50%
- % Injury BYG ([5]; Herb. No. 1 0.56 kg/ha + antidote 2.24 kg/ha): 35%
- % Injury BYG ([5]; Herb. No. 1 0.56 kg/ha + antidote 8.96 kg/ha): 10%
- % Injury BYG ([5]; Herb. No. 1 1.12 kg/ha + antidote 0.56 kg/ha): 75%
- % Injury BYG ([5]; Herb. No. 1 1.12 kg/ha + antidote 2.24 kg/ha): 60%
- % Injury BYG ([5]; Herb. No. 1 1.12 kg/ha + antidote 8.96 kg/ha): 60%
- % Injury BYG ([5]; Herb. No. 1 2.24 kg/ha + antidote 0.56 kg/ha): 60%
- % Injury BYG ([5]; Herb. No. 1 2.24 kg/ha + antidote 2.24 kg/ha): 70%
- % Injury BYG ([5]; Herb. No. 1 2.24 kg/ha + antidote 8.96 kg/ha): 50%
- % Injury BYG [5, 15]: 75%
- % Injury BYG [5, 16]: 70%
- % Injury BYG ([5]; Herb. No. 1 4.48 kg/ha + antidote 8.96 kg/ha): 80%
- % Injury BYG ([5]; antidote 8.96 kg/ha alone, no herbicide): 0%

Compound: COC(=O)c1c(Cl)nn(C)c1S(=O)(=O)NC(=O)Nc1nc(OC)cc(OC)n1 [Herbicide No. 1]
- % Injury BYG [1, 19]: 99%
- % Injury BYG [1, 20]: 100%
- % Injury BYG [1, 21]: 99%
- % Injury BYG [1, 22]: 100%
- % Injury VL [2, 19]: 98%
- % Injury VL [2, 20]: 98%
- % Injury VL [2, 21]: 98%
- % Injury VL [2, 22]: 98%
- corn injury level (GR) ([6]; Herbicide No. 1 0.14 kg/ha + Herbicide No. 6 (acetochlor)): 14.9%
- corn injury level (GR) ([6]; Herbicide No. 1 0.28 kg/ha + Herbicide No. 6 (acetochlor)): 24.9%
- corn injury level (GR) ([6]; Herbicide No. 1 0.7 kg/ha + Herbicide No. 6 (acetochlor)): 12.5%
- corn growth reduction (GR) ([6]; Herbicide No. 1 0.07 kg/ha + Herbicide No. 7 (alachlor)): 9.75%
- maximum injury level (GR) ([6]; Herbicide No. 1 0.07 kg/ha + Herbicide No. 7, without an antidote): 48%
- corn growth reduction (GR) ([6]; Herbicide No. 1 0.14 kg/ha + Herbicide No. 7 (alachlor)): 13.25%
- maximum injury level (GR) ([6]; Herbicide No. 1 0.14 kg/ha + Herbicide No. 7, without an antidote): 48%
- % Injury BYG [3, 23]: 80%
- % Injury BYG [3, 24]: 90%
- % Injury VL [4, 23]: 90%
- % Injury VL [4, 24]: 90%
- % Injury BYG ([5]; Herb. No. 1 0.56 kg/ha, no antidote): 50%
- % Injury BYG ([5]; Herb. No. 1 1.12 kg/ha, no antidote): 70%
- % Injury BYG ([5]; Herb. No. 1 2.24 kg/ha, no antidote): 70%
- % Injury BYG ([5]; Herb. No. 1 4.48 kg/ha, no antidote): 75%

Source: patent publication EP0603240B1, “SAFENING HERBICIDAL PYRAZOLYLSULFONYLUREAS” (priority 1991, dated 1993)
